Test results as given in US20240279190A1, “COMPOUNDS FOR MODULATING PLATELET-TYPE 12-(S)-LIPOXYGENASE AND METHODS OF USE FOR SAME” (The Regents of The University of California, priority 2021, published 2024).

Key:
wt12-LOX = target: T1, wt12-LOX (Homo sapiens, UniProt P18054); experiment: UV-Vis-based IC50 assay, wild type 12-LOX; format: biochemical
T1 construct: 6xHis (N); made in house; insert in pFastBac1 shuttle vector (baculovirus system, own inference)
T1 sequence (P18054 1-663): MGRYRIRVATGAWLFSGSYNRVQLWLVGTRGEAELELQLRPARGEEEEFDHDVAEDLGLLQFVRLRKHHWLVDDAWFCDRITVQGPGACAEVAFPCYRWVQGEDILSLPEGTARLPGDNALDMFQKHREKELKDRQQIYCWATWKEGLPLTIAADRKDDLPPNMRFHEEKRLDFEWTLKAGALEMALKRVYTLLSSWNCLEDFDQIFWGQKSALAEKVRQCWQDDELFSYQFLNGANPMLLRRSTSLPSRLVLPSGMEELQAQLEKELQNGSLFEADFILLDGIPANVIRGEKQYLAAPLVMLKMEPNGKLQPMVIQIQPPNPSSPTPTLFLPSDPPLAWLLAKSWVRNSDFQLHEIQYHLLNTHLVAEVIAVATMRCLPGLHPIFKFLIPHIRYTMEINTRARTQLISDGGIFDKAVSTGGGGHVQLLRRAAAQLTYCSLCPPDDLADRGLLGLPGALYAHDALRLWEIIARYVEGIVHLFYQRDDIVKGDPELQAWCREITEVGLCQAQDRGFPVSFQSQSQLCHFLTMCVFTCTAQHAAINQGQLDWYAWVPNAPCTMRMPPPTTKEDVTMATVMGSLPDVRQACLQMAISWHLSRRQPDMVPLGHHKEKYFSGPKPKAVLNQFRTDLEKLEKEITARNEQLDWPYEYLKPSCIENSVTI
Protocol: The wild type 12-LOX (wt-12-LOX) enzyme and its mutants were expressed as fusion proteins, with an N-terminal 6×His tag, and were affinity purified by nickel-iminodiacetic acid agarose using FPLC (Biorad).
The percent inhibition was determined by comparing the enzyme rates of the control (DMSO solvent) and the inhibitor sample by following the formation of the conjugated diene product at 234 nm (ε=25,000 M^−1cm^−1). The reactions were initiated by adding 200 nM 15-LOX-2, 30 nM 12-LOX, 40 nM 15-LOX-1, or approximately 100-300 nM (total protein) of 5-LOX ammonium sulfate fraction to a cuvette with 2 mL reaction buffer, constantly stirred using a magnetic stir bar at room temperature (22° C.). Reaction buffers used for various LOX isozymes were as follows: 25 mM HEPES (pH 7.3), 0.3 mM CaCl2), 0.1 mM EDTA, 0.2 mM ATP, 0.01% Triton X-100, 10 μM AA for the crude, ammonium sulfate precipitated 5-LOX; and 25 mM HEPES (pH 7.5), 0.01% Triton X-100, 10 μM AA for 15-LOX-2, 15-LOX-1, and 12-LOX. The substrate concentration was quantitatively determined by allowing the enzymatic reaction to go to completion in the presence of soybean LOX-1. IC50 values were obtained by determining the % inhibition, relative to solvent vehicle only, at various inhibitor concentrations. […]

human islets = experiment: Glucose stimulated insulin secretion (GSIS) of human islets treated with PIC; format: cell-based
Protocol: Human islets from nondiabetic donors were received from the Integrated Islet Distribution Program or Prodo Laboratories (Aliso Viejo, CA) (Table 1). Characteristics of islets and donors are summarized in the below table. Islets were incubated in CMRL-1066 medium supplemented with 10% fetal bovine serum and 1% Pen-Strept overnight at 37° C. in 5% CO2 for recovery from shipment. On the next day, islets were transferred to CMRL-1066 supplemented with 5% fetal bovine serum and 1% Pen-Strept. A portion of the islets were randomly selected and incubated with a mixture of human PICs, […] tumor necrosis factor α, […] interferon-γ, and […] IL-1β (all from BD Biosciences, San Jose, CA) in the presence or absence of 1 μmol/L compound LOX-12-001. Compound LOX-12-001 was added 30 minutes before the addition of pro-inflammatory cytokines (PIC).
Use of Krebs-Ringer buffer (KRB) for glucose-stimulated insulin secretion (GSIS) was previously published. For batch assays, islets treated with PIC in the presence or absence of compound LOX-12-001 (1 μM) for 24 hours were transferred to KRB without glucose and were incubated for 1 hour at 37° C. in 5% CO2 in the absence of PIC and compound LOX-12-001. Thereafter, 50 islet equivalents (IEQs) per well were transferred to six-well plates filled with 1 mL of KRB containing 3 mmol/L or 18 mmol/L of glucose and were incubated for 1 hour at 37° C. in 5% CO2. Each condition was performed in triplicate. After incubation, supernatant was collected for determination of insulin secretion by human insulin enzyme-linked immunosorbent assay (Mercodia, Winston-Salem, NC).
Data are presented as mean±standard error of the mean and were analyzed using Two-way Annova analysis of variance Sidak's multiple comparison test (Prism software, Irvine, CA) as indicated in each figure. P<0.05 was considered significant.

## COc1cccc(CNc2ccc(S(=O)(=O)Nc3nc4c(ccc5ccccc54)s3)cc2)c1O [Compound LOX-12-001, 4-((2-hydroxy-3-methoxybenzyl)amino)-N-(naphtho[1,2-d]thiazol-2-yl)benzenesulfonamide]
wt12-LOX; against wt12-LOX
  fold increase in potency relative to ML355: 7.2 fold
wt12-LOX; wt12-LOX, 10 μM AA, 25 mM HEPES pH 7.5, 22° C.
  IC50: 50 ± 20 nM
Human islets; 3 mmol/L glucose, PIC plus 1 μM compound for 24 hrs
  insulin secretion: 140+/−3 mU/L
Human islets; 3 mmol/L glucose, compound only (1 μM), no PIC
  insulin secretion: 25+/−5 mU/L
Human islets; 18 mmol/L glucose, PIC plus 1 μM compound for 24 hrs
  insulin secretion: 352+/−10 mU/L
Human islets; 18 mmol/L glucose, compound only (1 μM), no PIC
  insulin secretion: 128+/−13 mU/L
